Species: Rattus norvegicus
Assay: DrugMatrix - Regimen: Daily Repeat
Type: toxicity, organism-based, Sprague-Dawley
Design: regimen Daily Repeat, gender Male, age 6-8 weeks
Conditions: in vivo, po, route oral GAVAGE, vehicle 100 % SALINE; for ABSOLUTE BASOPHIL / ABSOLUTE EOSINOPHIL / ABSOLUTE LYMPHOCYTE / ABSOLUTE MONOCYTE / ABSOLUTE SEGMENTED NEUTROPHIL / BASOPHIL / EOSINOPHIL / ERYTHROCYTE COUNT / HEMATOCRIT / HEMOGLOBIN / LEUKOCYTE COUNT / LYMPHOCYTE / MEAN CORPUSCULAR HEMOGLOBIN / MEAN CORPUSCULAR HEMOGLOBIN CONCENTRATION / MEAN CORPUSCULAR VOLUME / MONOCYTE / NEUTROPHIL / NUCLEATED RED BLOOD CELLS / PLATELET COUNT: tissue Blood; for ALANINE AMINOTRANSFERASE / ALBUMIN / ALKALINE PHOSPHATASE / ASPARTATE AMINOTRANSFERASE / BLOOD UREA NITROGEN / CARBON DIOXIDE / CHLORIDE / CHOLESTEROL / CREATINE PHOSPHOKINASE / CREATININE / GLUCOSE / LACTATE DEHYDROGENASE / LIPASE / PHOSPHORUS / POTASSIUM / SODIUM / TOTAL BILIRUBIN / TOTAL PROTEIN / URIC ACID: tissue Plasma
[1] = 0 mg/kg, 72 h, dose level Control, time 3 day
[2] = 0 mg/kg, 120 h, dose level Control, time 5 day
[3] = 11 mg/kg, 72 h, dose level High, time 3 day

Cc1cc(CC(=O)O)n(C)c1C(=O)c1ccc(Cl)cc1 [ZOMEPIRAC]
ABSOLUTE BASOPHIL [1]: 0 CELLS/uL
ABSOLUTE EOSINOPHIL [1]: 65.67 CELLS/uL
ABSOLUTE LYMPHOCYTE [1]: 17283.5 CELLS/uL
ABSOLUTE MONOCYTE [1]: 0 CELLS/uL
ABSOLUTE SEGMENTED NEUTROPHIL [1]: 1284.17 CELLS/uL
BASOPHIL [1]: 0%
EOSINOPHIL [1]: 0.33%
ERYTHROCYTE COUNT [1]: 5.46 x10E6/uL
HEMATOCRIT [1]: 34.28%
HEMOGLOBIN [1]: 13.78 G/DL
LEUKOCYTE COUNT [1]: 18.63 x10E3/uL
LYMPHOCYTE [1]: 92.67%
MEAN CORPUSCULAR HEMOGLOBIN [1]: 25.3 pg
MEAN CORPUSCULAR HEMOGLOBIN CONCENTRATION [1]: 40.22 G/DL
MEAN CORPUSCULAR VOLUME [1]: 62.87 fL
MONOCYTE [1]: 0%
NEUTROPHIL [1]: 7%
NUCLEATED RED BLOOD CELLS [1]: 0 /100WBC
PLATELET COUNT [1]: 1244.83 x10E3/uL
ALANINE AMINOTRANSFERASE [1]: 52.83 u/L
ALBUMIN [1]: 4 G/DL
ALKALINE PHOSPHATASE [1]: 327.67 u/L
ASPARTATE AMINOTRANSFERASE [1]: 78.83 u/L
BLOOD UREA NITROGEN [1]: 13.83 mg/dL
CARBON DIOXIDE [1]: 26.67 mmol/L
CHLORIDE [1]: 99.67 MEQ/L
CHOLESTEROL [1]: 69 mg/dL
CREATINE PHOSPHOKINASE [1]: 350.17 u/L
CREATININE [1]: 0.21 mg/dL
GLUCOSE [1]: 173.83 mg/dL
LACTATE DEHYDROGENASE [1]: 168.33 u/L
LIPASE [1]: 11 u/L
PHOSPHORUS [1]: 12.7 mg/dL
POTASSIUM [1]: 6.88 MEQ/L
SODIUM [1]: 141.68 MEQ/L
TOTAL BILIRUBIN [1]: 0.22 mg/dL
TOTAL PROTEIN [1]: 6.02 G/DL
URIC ACID [1]: 1.9 mg/dL
ABSOLUTE BASOPHIL [2]: 0 CELLS/uL
ABSOLUTE EOSINOPHIL [2]: 14.83 CELLS/uL
ABSOLUTE LYMPHOCYTE [2]: 12880 CELLS/uL
ABSOLUTE MONOCYTE [2]: 90.67 CELLS/uL
ABSOLUTE SEGMENTED NEUTROPHIL [2]: 864.5 CELLS/uL
BASOPHIL [2]: 0%
EOSINOPHIL [2]: 0.17%
ERYTHROCYTE COUNT [2]: 5.83 x10E6/uL
HEMATOCRIT [2]: 35.87%
HEMOGLOBIN [2]: 14 G/DL
LEUKOCYTE COUNT [2]: 13.85 x10E3/uL
LYMPHOCYTE [2]: 92.5%
MEAN CORPUSCULAR HEMOGLOBIN [2]: 24.03 pg
MEAN CORPUSCULAR HEMOGLOBIN CONCENTRATION [2]: 39.03 G/DL
MEAN CORPUSCULAR VOLUME [2]: 61.53 fL
MONOCYTE [2]: 0.67%
NEUTROPHIL [2]: 6.67%
NUCLEATED RED BLOOD CELLS [2]: 0 /100WBC
PLATELET COUNT [2]: 1041.83 x10E3/uL
ALANINE AMINOTRANSFERASE [2]: 56 u/L
ALBUMIN [2]: 4.47 G/DL
ALKALINE PHOSPHATASE [2]: 319 u/L
ASPARTATE AMINOTRANSFERASE [2]: 89.17 u/L
BLOOD UREA NITROGEN [2]: 15.2 mg/dL
CARBON DIOXIDE [2]: 24 mmol/L
CHLORIDE [2]: 104.4 MEQ/L
CHOLESTEROL [2]: 69.5 mg/dL
CREATINE PHOSPHOKINASE [2]: 295.83 u/L
CREATININE [2]: 0.21 mg/dL
GLUCOSE [2]: 124.33 mg/dL
LACTATE DEHYDROGENASE [2]: 325.5 u/L
LIPASE [2]: 14.67 u/L
PHOSPHORUS [2]: 11.45 mg/dL
POTASSIUM [2]: 6.74 MEQ/L
SODIUM [2]: 151.4 MEQ/L
TOTAL BILIRUBIN [2]: 0.23 mg/dL
TOTAL PROTEIN [2]: 6.45 G/DL
URIC ACID [2]: 1.18 mg/dL
ABSOLUTE BASOPHIL [3]: 0 CELLS/uL
ABSOLUTE EOSINOPHIL [3]: 0 CELLS/uL
ABSOLUTE LYMPHOCYTE [3]: 16900 CELLS/uL
ABSOLUTE MONOCYTE [3]: 480 CELLS/uL
ABSOLUTE SEGMENTED NEUTROPHIL [3]: 3253.33 CELLS/uL
BASOPHIL [3]: 0%
EOSINOPHIL [3]: 0%
ERYTHROCYTE COUNT [3]: 5.38 x10E6/uL
HEMATOCRIT [3]: 33.2%
HEMOGLOBIN [3]: 13.37 G/DL
LEUKOCYTE COUNT [3]: 20.63 x10E3/uL
LYMPHOCYTE [3]: 83.67%
MEAN CORPUSCULAR HEMOGLOBIN [3]: 24.83 pg
MEAN CORPUSCULAR HEMOGLOBIN CONCENTRATION [3]: 40.27 G/DL
MEAN CORPUSCULAR VOLUME [3]: 61.67 fL
MONOCYTE [3]: 2%
NEUTROPHIL [3]: 14.33%
NUCLEATED RED BLOOD CELLS [3]: 0 /100WBC
PLATELET COUNT [3]: 1231.67 x10E3/uL
ALANINE AMINOTRANSFERASE [3]: 59 u/L
ALBUMIN [3]: 3.87 G/DL
ALKALINE PHOSPHATASE [3]: 255.33 u/L
ASPARTATE AMINOTRANSFERASE [3]: 72.67 u/L
BLOOD UREA NITROGEN [3]: 13.33 mg/dL
CARBON DIOXIDE [3]: 25.33 mmol/L
CHLORIDE [3]: 101 MEQ/L
CHOLESTEROL [3]: 69 mg/dL
CREATINE PHOSPHOKINASE [3]: 224.67 u/L
CREATININE [3]: 0.23 mg/dL
GLUCOSE [3]: 183.67 mg/dL
LACTATE DEHYDROGENASE [3]: 112.67 u/L
LIPASE [3]: 10.33 u/L
PHOSPHORUS [3]: 11.5 mg/dL
POTASSIUM [3]: 5.88 MEQ/L
SODIUM [3]: 141.43 MEQ/L
TOTAL BILIRUBIN [3]: 0.2 mg/dL
TOTAL PROTEIN [3]: 5.77 G/DL
URIC ACID [3]: 1.47 mg/dL

From ChEMBL document CHEMBL3885881, “DrugMatrix”
